Measured values taken from patent US20250101023A1, “HETEROARYL DERIVATIVE AND USES THEREOF” (IUCF-HYU (INDUSTRY-UNIVERSITY COOPERATION FOUNDATION …, priority 2022, published 2025).

How the values were obtained:
HIPK3 = HIPK3 (Homo sapiens (Human), UniProt Q9H422); test: Kinome-wide profiling; assay type: biochemical; details: read-out: % Residual Activity (mean)
PIM1 = PIM1 (Homo sapiens (Human), UniProt P11309); test: Kinome-wide profiling; assay type: biochemical; details: read-out: % Residual Activity (mean)
TYK1/LTK = TYK1/LTK (Homo sapiens (Human), UniProt P29376); test: Kinome-wide profiling; assay type: biochemical; details: read-out: % Residual Activity (mean)
RIPK2 = RIPK2 (Homo sapiens (Human), UniProt O43353); test: Kinome-wide profiling; assay type: biochemical; details: read-out: % Residual Activity (mean)
FRK/PTK5 = FRK/PTK5 (Homo sapiens (Human), UniProt P42685); test: Kinome-wide profiling; assay type: biochemical; details: read-out: % Residual Activity (mean)
SLK/STK2 = SLK/STK2 (Homo sapiens (Human), UniProt Q9H2G2); test: Kinome-wide profiling; assay type: biochemical; details: read-out: % Residual Activity (mean)
ABL2/ARG = ABL2/ARG (Homo sapiens (Human), UniProt P42684); test: Kinome-wide profiling; assay type: biochemical; details: read-out: % Residual Activity (mean)
CHK1 = CHK1 (Homo sapiens (Human), UniProt O14757); test: Kinome-wide profiling; assay type: biochemical; details: read-out: % Residual Activity (mean)
CDK2/cyclin A1 = CDK2/cyclin A1 (Homo sapiens (Human), UniProt P24941); test: Kinome-wide profiling; assay type: biochemical; details: read-out: % Residual Activity (mean)
TGFBR2 = TGFBR2 (Homo sapiens (Human), UniProt P37173); test: Kinome-wide profiling; assay type: biochemical; details: read-out: % Residual Activity (mean)
SIK1 = SIK1 (Homo sapiens (Human), UniProt P57059); test: Kinome-wide profiling; assay type: biochemical; details: read-out: % Residual Activity (mean)
TNIK = TNIK (Homo sapiens (Human), UniProt Q9UKE5); test: Kinome-wide profiling; assay type: biochemical; details: read-out: % Residual Activity (mean)
IKKe/IKBKE = IKKe/IKBKE (Homo sapiens (Human), UniProt Q14164); test: Kinome-wide profiling; assay type: biochemical; details: read-out: % Residual Activity (mean)
DRAK1/STK17A = DRAK1/STK17A (Homo sapiens (Human), UniProt Q9UEE5); test: Kinome-wide profiling; assay type: biochemical; details: read-out: % Residual Activity (mean)
AKT1 = AKT1 (Homo sapiens (Human), UniProt P31749); test: Kinome-wide profiling; assay type: biochemical; details: read-out: % Residual Activity (mean)
EPHB1 = EPHB1 (Homo sapiens (Human), UniProt P54762); test: Kinome-wide profiling; assay type: biochemical; details: read-out: % Residual Activity (mean)
ULK2 = ULK2 (Homo sapiens (Human), UniProt Q8IYT8); test: Kinome-wide profiling; assay type: biochemical; details: read-out: % Residual Activity (mean)
BRAF = BRAF (Homo sapiens (Human), UniProt P15056); test: Kinome-wide profiling; assay type: biochemical; details: read-out: % Residual Activity (mean)
IKKa/CHUK = IKKa/CHUK (Homo sapiens (Human), UniProt O15111); test: Kinome-wide profiling; assay type: biochemical; details: read-out: % Residual Activity (mean)
CSK = CSK (Homo sapiens (Human), UniProt P41240); test: Kinome-wide profiling; assay type: biochemical; details: read-out: % Residual Activity (mean)
MYO3b = MYO3b (Homo sapiens (Human), UniProt Q8WXR4); test: Kinome-wide profiling; assay type: biochemical; details: read-out: % Residual Activity (mean)
CDK14/cyclin Y (PFTK1) = CDK14/cyclin Y (PFTK1) (Homo sapiens (Human), UniProt O94921); test: Kinome-wide profiling; assay type: biochemical; details: read-out: % Residual Activity (mean)
CK1epsilon = CK1epsilon (Homo sapiens (Human), UniProt P49674); test: Kinome-wide profiling; assay type: biochemical; details: read-out: % Residual Activity (mean)
MYLK4 = MYLK4 (Homo sapiens (Human), UniProt Q86YV6); test: Kinome-wide profiling; assay type: biochemical; details: read-out: % Residual Activity (mean)
FGR = FGR (Homo sapiens (Human), UniProt P09769); test: Kinome-wide profiling; assay type: biochemical; details: read-out: % Residual Activity (mean)
LATS2 = LATS2 (Homo sapiens (Human), UniProt Q9NRM7); test: Kinome-wide profiling; assay type: biochemical; details: read-out: % Residual Activity (mean)
NEK4 = NEK4 (Homo sapiens (Human), UniProt P51957); test: Kinome-wide profiling; assay type: biochemical; details: read-out: % Residual Activity (mean)
CK1g1 = CK1g1 (Homo sapiens (Human), UniProt Q9HCP0); test: Kinome-wide profiling; assay type: biochemical; details: read-out: % Residual Activity (mean)
BRSK1 = BRSK1 (Homo sapiens (Human), UniProt Q8TDC3); test: Kinome-wide profiling; assay type: biochemical; details: read-out: % Residual Activity (mean)
ULK3 = ULK3 (Homo sapiens (Human), UniProt Q6PHR2); test: Kinome-wide profiling; assay type: biochemical; details: read-out: % Residual Activity (mean)
GRK2 = GRK2 (Homo sapiens (Human), UniProt P25098); test: Kinome-wide profiling; assay type: biochemical; details: read-out: % Residual Activity (mean)
CDK6/cyclin D2 = CDK6/cyclin D2 (Homo sapiens (Human), UniProt Q00534); test: Kinome-wide profiling; assay type: biochemical; details: read-out: % Residual Activity (mean)
DYRK3 = DYRK3 (Homo sapiens (Human), UniProt O43781); test: Kinome-wide profiling; assay type: biochemical; details: read-out: % Residual Activity (mean)
HIPK4 = HIPK4 (Homo sapiens (Human), UniProt Q8NE63); test: Kinome-wide profiling; assay type: biochemical; details: read-out: % Residual Activity (mean)
EPHA4 = EPHA4 (Homo sapiens (Human), UniProt P54764); test: Kinome-wide profiling; assay type: biochemical; details: read-out: % Residual Activity (mean)
[1] = Liver microsomal metabolic stability; assay type: in vitro ADME
Protocol: 5 derivatives were evaluated for in vitro metabolic stability in liver microsomes from three different species (human, dog, mouse) and for inhibitory activity against 5 representative cytochrome P450 enzymes (CYPs)(Table 3). In terms of liver microsomal stability, the 2′-pyridyl group is more suitable than the α-methyl-4′-pyridyl group as the terminal aromatic group at position 6, and the aminopyrimidyl group is better than the aminopyridyl group as a substituent at position 2.

CK1g2 = CK1g2 (Homo sapiens (Human), UniProt P78368); test: Kinome-wide profiling; assay type: biochemical; details: read-out: % Residual Activity (mean)

Chain of PIM1 (P11309 whole entry): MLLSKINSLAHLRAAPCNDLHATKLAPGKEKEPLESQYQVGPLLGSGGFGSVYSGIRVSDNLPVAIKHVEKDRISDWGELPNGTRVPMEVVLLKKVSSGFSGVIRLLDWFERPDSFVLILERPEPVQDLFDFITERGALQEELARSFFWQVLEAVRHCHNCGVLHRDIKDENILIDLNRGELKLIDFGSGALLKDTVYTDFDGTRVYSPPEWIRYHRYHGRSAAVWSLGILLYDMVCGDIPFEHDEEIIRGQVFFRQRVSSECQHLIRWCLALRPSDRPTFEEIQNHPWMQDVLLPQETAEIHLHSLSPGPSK
Chain of ABL2/ARG (P42684 whole entry): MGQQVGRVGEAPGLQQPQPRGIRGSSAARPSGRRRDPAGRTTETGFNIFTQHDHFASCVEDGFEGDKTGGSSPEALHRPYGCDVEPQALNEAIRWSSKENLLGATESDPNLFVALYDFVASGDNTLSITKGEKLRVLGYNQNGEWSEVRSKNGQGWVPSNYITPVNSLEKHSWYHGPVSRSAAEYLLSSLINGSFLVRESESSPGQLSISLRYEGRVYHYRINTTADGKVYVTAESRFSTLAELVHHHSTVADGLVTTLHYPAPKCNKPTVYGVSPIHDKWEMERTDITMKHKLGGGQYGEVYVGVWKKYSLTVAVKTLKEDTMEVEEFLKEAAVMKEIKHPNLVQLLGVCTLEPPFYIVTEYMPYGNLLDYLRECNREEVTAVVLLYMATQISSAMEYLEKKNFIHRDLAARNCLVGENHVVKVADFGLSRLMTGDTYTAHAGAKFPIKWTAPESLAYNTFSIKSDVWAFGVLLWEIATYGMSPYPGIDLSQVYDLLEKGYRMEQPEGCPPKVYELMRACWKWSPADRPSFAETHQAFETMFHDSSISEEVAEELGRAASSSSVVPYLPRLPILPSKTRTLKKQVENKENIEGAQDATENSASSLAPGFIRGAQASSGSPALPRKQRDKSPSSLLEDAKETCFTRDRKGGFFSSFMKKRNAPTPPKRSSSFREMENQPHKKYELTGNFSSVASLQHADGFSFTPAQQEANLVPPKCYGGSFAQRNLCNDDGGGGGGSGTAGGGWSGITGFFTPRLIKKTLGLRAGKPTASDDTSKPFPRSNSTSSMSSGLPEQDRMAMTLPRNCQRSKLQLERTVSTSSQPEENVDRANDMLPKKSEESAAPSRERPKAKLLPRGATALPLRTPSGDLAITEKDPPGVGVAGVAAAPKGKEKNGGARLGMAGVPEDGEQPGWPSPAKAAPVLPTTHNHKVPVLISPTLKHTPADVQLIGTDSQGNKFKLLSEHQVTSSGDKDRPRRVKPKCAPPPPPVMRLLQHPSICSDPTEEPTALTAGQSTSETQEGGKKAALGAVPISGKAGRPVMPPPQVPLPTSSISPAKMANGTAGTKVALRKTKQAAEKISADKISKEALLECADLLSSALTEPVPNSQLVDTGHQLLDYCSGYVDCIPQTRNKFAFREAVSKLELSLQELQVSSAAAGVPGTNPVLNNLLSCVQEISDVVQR
Chain of ULK3 (Q6PHR2 whole entry): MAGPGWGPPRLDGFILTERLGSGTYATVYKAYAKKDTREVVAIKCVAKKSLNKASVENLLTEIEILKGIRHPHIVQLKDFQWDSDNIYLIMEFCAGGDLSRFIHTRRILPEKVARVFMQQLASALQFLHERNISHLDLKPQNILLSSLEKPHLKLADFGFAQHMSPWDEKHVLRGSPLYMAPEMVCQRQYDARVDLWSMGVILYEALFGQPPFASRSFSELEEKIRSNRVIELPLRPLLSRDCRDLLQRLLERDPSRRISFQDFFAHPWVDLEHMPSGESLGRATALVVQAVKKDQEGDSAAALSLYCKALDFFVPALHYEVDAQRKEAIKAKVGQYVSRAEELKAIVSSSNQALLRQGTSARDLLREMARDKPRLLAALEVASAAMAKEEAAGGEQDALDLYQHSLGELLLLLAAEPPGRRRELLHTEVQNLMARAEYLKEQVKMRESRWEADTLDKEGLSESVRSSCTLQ
Chain of HIPK3 (Q9H422 whole entry): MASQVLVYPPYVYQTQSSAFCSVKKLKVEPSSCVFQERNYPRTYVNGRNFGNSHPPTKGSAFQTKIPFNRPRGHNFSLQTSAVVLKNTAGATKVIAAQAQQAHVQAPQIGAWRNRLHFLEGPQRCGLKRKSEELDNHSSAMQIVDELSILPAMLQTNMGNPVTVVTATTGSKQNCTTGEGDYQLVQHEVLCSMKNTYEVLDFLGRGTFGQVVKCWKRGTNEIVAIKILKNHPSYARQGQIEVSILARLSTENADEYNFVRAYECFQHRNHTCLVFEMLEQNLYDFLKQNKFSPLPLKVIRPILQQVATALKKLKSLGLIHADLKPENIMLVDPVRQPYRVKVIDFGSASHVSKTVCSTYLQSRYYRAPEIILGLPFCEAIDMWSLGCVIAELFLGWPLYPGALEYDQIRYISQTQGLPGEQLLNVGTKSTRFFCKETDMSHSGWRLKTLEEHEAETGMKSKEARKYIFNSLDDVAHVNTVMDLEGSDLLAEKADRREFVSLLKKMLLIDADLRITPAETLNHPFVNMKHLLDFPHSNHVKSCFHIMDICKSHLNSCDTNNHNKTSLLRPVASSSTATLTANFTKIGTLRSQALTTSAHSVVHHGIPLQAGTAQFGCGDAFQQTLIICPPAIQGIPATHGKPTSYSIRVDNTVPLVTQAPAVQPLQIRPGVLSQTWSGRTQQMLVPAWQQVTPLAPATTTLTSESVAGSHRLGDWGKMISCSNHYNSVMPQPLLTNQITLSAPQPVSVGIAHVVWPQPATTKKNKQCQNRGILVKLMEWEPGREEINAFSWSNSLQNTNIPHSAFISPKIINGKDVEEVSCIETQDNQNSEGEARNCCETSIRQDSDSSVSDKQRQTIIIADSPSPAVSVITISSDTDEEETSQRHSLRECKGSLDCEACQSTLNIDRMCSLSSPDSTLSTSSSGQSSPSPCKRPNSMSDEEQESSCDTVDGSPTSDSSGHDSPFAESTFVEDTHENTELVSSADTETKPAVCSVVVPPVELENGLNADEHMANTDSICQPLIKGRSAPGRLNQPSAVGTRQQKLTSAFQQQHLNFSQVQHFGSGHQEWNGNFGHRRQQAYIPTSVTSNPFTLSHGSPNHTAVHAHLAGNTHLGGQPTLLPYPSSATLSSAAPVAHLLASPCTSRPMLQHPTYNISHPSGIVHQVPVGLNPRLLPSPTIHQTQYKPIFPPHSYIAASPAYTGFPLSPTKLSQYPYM
Chain of HIPK4 (Q8NE63 whole entry): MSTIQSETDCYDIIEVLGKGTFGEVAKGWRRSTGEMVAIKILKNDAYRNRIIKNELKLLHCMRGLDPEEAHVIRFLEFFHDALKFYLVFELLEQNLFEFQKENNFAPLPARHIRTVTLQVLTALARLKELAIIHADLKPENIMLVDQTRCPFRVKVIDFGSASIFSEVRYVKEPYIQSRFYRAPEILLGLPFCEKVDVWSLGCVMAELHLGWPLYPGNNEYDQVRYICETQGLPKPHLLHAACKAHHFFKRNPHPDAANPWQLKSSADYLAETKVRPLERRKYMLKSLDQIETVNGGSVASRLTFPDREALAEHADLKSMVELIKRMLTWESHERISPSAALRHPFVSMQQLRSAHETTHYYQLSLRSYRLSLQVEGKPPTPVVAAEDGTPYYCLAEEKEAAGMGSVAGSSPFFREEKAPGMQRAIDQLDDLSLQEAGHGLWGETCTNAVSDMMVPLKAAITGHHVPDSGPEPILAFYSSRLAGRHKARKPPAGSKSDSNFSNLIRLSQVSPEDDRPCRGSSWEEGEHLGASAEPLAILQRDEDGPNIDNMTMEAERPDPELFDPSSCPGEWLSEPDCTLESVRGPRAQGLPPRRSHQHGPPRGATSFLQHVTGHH
Chain of EPHB1 (P54762 18-984): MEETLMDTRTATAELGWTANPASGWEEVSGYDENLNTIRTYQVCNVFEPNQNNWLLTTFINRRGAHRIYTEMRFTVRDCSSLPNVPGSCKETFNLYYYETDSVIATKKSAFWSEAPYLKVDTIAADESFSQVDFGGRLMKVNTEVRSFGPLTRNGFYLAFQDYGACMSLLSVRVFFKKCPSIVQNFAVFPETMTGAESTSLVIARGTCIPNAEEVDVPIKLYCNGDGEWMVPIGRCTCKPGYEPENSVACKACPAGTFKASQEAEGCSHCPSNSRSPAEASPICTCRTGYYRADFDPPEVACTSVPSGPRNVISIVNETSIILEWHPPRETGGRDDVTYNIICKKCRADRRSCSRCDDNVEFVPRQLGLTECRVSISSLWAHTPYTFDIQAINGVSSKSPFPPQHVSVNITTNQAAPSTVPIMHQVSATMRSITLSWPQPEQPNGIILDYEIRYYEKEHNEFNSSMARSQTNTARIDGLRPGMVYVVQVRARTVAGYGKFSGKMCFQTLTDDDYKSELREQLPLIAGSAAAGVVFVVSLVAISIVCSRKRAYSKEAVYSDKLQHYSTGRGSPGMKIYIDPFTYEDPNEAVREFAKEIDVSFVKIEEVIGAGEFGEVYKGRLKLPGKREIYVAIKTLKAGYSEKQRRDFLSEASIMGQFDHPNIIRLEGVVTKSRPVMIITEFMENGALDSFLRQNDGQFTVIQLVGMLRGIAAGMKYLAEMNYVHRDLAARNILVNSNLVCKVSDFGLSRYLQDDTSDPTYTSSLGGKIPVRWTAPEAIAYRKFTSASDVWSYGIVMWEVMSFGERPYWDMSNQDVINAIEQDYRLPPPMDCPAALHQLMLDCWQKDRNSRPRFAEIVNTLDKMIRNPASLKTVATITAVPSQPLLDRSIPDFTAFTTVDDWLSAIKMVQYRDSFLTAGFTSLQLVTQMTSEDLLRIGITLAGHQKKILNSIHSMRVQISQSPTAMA

`CCn1cnc2c(NCc3ccc(-c4ccccn4)nc3)nc(-c3ccc(N)nc3)nc21` [Example 53, N-([2,2′-bipyridin]-5-ylmethyl)-2-(6-aminopyridin-3-yl)-9-ethyl-9H-purin-6-amine] gave a remaining activity at 10 µM (HIPK3) of 94.1%, a remaining activity at 10 µM (PIM1) of 97.8% and a remaining activity at 10 µM (TYK1/LTK) of 73.6%. For the same compound, the remaining activity at 10 µM (RIPK2) was 66.1%, the remaining activity at 10 µM (FRK/PTK5) was 43.5% and the remaining activity at 10 µM (SLK/STK2) was 69.5%. It also gave a remaining activity at 10 µM (ABL2/ARG) of 56.1%, a remaining activity at 10 µM (CHK1) of 79.5% and a remaining activity at 10 µM (CDK2/cyclin A1) of 0.16%. It also gave a remaining activity at 10 µM (TGFBR2) of 94.5%, a remaining activity at 10 µM (SIK1) of 56.3% and a remaining activity at 10 µM (TNIK) of 69%. For the same compound, the remaining activity at 10 µM (IKKe/IKBKE) was 80.1%, the remaining activity at 10 µM (DRAK1/STK17A) was 79.3% and the remaining activity at 10 µM (AKT1) was 94.9%. For the same compound, the remaining activity at 10 µM (EPHB1) was 13.6%, the remaining activity at 10 µM (ULK2) was 87.3% and the remaining activity at 10 µM (BRAF) was 60.8%. The remaining activity at 10 µM (IKKa/CHUK) was 71.5%, the remaining activity at 10 µM (CSK) was 54.8% and the remaining activity at 10 µM (MYO3b) was 68.1%. For the same compound, the remaining activity at 10 µM (CDK14/cyclin Y (PFTK1)) was 14%, the remaining activity at 10 µM (CK1epsilon) was 29.8% and the remaining activity at 10 µM (MYLK4) was 4.07%. The remaining activity at 10 µM (FGR) was 54.6%, the remaining activity at 10 µM (LATS2) was 77.4% and the remaining activity at 10 µM (NEK4) was 95.8%. It also gave a remaining activity at 10 µM (CK1g1) of 22.9%, a remaining activity at 10 µM (BRSK1) of 92.8% and a remaining activity at 10 µM (ULK3) of 91.8%. It also gave a remaining activity at 10 µM (GRK2) of 99.1%, a remaining activity at 10 µM (CDK6/cyclin D2) of 51.5% and a remaining activity at 10 µM (DYRK3) of 58.6%. For the same compound, the remaining activity at 10 µM (HIPK4) was 43.9%, the remaining activity at 10 µM (EPHA4) was 3.61% and the “Liver microsomal metabolic stability (% remaining amount) Dog” value ([1]; dog liver microsomes) was 46.2%. For the same compound, the “Liver microsomal metabolic stability (% remaining amount) Human” value ([1]; human liver microsomes) was 64.8%, the “Liver microsomal metabolic stability (% remaining amount) Mouse” value ([1]; mouse liver microsomes) was 49.9% and the remaining activity at 10 µM (CK1g2) was 27%.
